Measurements taken from ChEMBL document CHEMBL4270528, “Design, synthesis, molecular modeling and anti-proliferative evaluation of novel quinoxaline derivatives as potential DNA intercalators and topoisomerase II inhibitors” (Eur J Med Chem, 2018).
Active and inactive are the calls of the source. No cut-off for these calls is given here.

Experiments:
HepG2 = assay: Antiproliferative activity against human HepG2 cells after 48 hrs by neutral red assay; assay type: functional, cell-based; conditions: HepG2, 48 h
HEp-2 = assay: Antiproliferative activity against human Hep2 cells after 48 hrs by neutral red assay; assay type: functional, cell-based; conditions: HEp-2, 48 h
Caco-2 [1] = assay: Antiproliferative activity against human Caco2 cells after 48 hrs by neutral red assay; assay type: functional, cell-based; conditions: Caco-2, 48 h
[2] = biological target: T1, DNA topoisomerase 2-alpha (Homo sapiens, UniProt P11388); assay: Inhibition of recombinant human topoisomerase 2 assessed as reduction in relaxation of supercoiled pBS-SK(+) DNA at 10 uM after 30 mins by agarose gel electrophoresis
T1 sequence (P11388 whole entry): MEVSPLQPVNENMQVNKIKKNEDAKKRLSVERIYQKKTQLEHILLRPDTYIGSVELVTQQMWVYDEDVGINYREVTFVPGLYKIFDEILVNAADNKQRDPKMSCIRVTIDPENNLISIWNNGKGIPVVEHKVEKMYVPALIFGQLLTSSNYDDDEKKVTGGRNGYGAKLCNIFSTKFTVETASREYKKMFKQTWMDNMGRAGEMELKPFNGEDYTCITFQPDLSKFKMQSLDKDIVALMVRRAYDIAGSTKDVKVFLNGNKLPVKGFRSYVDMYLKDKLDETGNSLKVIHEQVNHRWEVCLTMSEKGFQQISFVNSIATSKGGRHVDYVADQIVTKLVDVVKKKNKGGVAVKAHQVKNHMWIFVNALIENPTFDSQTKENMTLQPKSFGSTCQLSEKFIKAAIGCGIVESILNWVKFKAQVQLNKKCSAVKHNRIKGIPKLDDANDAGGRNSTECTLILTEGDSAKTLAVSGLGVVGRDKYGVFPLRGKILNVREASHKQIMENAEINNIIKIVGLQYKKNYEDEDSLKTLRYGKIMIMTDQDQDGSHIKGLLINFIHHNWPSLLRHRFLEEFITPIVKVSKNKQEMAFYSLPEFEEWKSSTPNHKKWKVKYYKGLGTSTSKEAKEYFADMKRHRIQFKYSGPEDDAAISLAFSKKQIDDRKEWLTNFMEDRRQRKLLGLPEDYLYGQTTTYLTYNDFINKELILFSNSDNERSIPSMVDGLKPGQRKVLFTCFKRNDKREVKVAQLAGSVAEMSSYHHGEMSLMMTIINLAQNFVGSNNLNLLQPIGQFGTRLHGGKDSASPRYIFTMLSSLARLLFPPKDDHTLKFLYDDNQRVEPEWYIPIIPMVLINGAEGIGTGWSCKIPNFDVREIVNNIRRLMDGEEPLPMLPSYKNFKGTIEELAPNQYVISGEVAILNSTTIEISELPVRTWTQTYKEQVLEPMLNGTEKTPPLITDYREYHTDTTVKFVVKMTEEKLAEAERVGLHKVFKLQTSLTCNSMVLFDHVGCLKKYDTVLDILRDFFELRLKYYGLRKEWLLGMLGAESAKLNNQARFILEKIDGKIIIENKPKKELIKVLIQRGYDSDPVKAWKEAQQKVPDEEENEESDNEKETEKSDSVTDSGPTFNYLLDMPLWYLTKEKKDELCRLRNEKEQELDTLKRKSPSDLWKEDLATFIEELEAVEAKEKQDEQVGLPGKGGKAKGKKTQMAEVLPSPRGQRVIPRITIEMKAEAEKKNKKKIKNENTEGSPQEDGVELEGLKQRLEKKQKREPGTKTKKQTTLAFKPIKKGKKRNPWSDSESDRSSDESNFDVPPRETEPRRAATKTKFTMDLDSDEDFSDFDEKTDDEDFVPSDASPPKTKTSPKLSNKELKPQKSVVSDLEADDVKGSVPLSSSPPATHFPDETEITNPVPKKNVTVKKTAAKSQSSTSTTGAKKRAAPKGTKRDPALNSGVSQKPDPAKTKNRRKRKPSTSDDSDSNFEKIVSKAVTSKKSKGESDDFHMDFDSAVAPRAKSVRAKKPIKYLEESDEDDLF

[3] = biological target: T1, DNA topoisomerase 2-alpha; assay: Inhibition of human topoisomerase 2 assessed as cleavage complex formation at 10 uM using pBS-SK(+) DNA as substrate after 60 mins by agarose gel electrophoresis
Escherichia coli = assay: Induction of Escherichia coli bacteriophage lambda DNA intercalation assessed as inhibition of Sal 1/EcoR 1-mediated DNA cleavage after 2 hrs by agarose gel electrophoresis
[4] = biological target: T1, DNA topoisomerase 2-alpha; assay: Inhibition of human topoisomerase 2 using supercoiled pHOT1 DNA as substrate after 30 mins by agarose gel electrophoresis
Calf thymus DNA = assay: Inhibition of methyl green binding to calf thymus DNA incubated for 24 hrs in dark by spectrophotometric method; assay type: nucleic-acid assay, Bos taurus
Caco-2 [5] = assay: Induction of apoptosis in human Caco2 cells assessed as early apoptotic cells at 0.5 uM after 24 hrs by Annexin V-FITC/propidium iodide staining based flow cytometry (reference value: 0.48%); assay type: functional
Caco-2 [6] = assay: Induction of apoptosis in human Caco2 cells assessed as accumulation at pre-G1 phase at 0.5 uM after 24 hrs by Annexin V-FITC/propidium iodide staining based flow cytometry (reference value: 2.76%); assay type: functional
Caco-2 [7] = assay: Induction of apoptosis in human Caco2 cells assessed as late apoptotic cells at 0.5 uM after 24 hrs by Annexin V-FITC/propidium iodide staining based flow cytometry (reference value: 0.69%); assay type: functional
[8] = biological target: T1, DNA topoisomerase 2-alpha; assay: Inhibition of human topoisomerase 2 assessed as cleavage complex formation at 25 to 50 uM using pBS-SK(+) DNA as substrate after 60 mins by agarose gel electrophoresis
Caco-2 [9] = assay: Down regulation of Cyclin B mRNA expression level in human Caco2 cells by qRT-PCR method; assay type: functional, cell-based
[10] = biological target: T1, DNA topoisomerase 2-alpha; assay: Inhibition of recombinant human topoisomerase 2 assessed as reduction in relaxation of supercoiled pBS-SK(+) DNA at 5 uM after 30 mins by agarose gel electrophoresis
Caco-2 [11] = assay: Cell cycle arrest in human Caco2 cells assessed as accumulation at G2/M phase at 0.5 uM after 24 hrs by propidium iodide staining based flow cytometry (reference value: 15.19%); assay type: functional
Caco-2 [12] = assay: Cell cycle arrest in human Caco2 cells assessed as accumulation at S phase at 0.5 uM after 24 hrs by propidium iodide staining based flow cytometry (reference value: 30.96%); assay type: functional
Caco-2 [13] = assay: Cell cycle arrest in human Caco2 cells assessed as accumulation at G0/G1 phase at 0.5 uM after 24 hrs by propidium iodide staining based flow cytometry (reference value: 53.85%); assay type: functional
Caco-2 [14] = assay: Upregulation of […] mRNA expression level in human Caco2 cells by qRT-PCR method; assay type: functional, cell-based
Caco-2 [15] = assay: Induction of apoptosis in human Caco2 cells assessed as viable cells at 0.5 uM after 24 hrs by Annexin V-FITC/propidium iodide staining based flow cytometry (reference value: 96.65%); assay type: functional; conditions: Caco-2, 24 h, read-out: Activity
[16] = biological target: T1, DNA topoisomerase 2-alpha; assay: Inhibition of recombinant human topoisomerase 2 assessed as reduction in relaxation of supercoiled pBS-SK(+) DNA at 10 to 50 uM after 30 mins by agarose gel electrophoresis
Caco-2 [17] = assay: Down regulation of Bax mRNA expression level in human Caco2 cells by qRT-PCR method; assay type: functional, cell-based
Caco-2 [18] = assay: Down regulation of Caspase 8 mRNA expression level in human Caco2 cells by qRT-PCR method; assay type: functional, cell-based
[19] = biological target: T1, DNA topoisomerase 2-alpha; assay: Inhibition of recombinant human topoisomerase 2 assessed as reduction in relaxation of supercoiled pBS-SK(+) DNA after 30 mins by agarose gel electrophoresis
Caco-2 [20] = assay: Down regulation of Bec1 mRNA expression level in human Caco2 cells by qRT-PCR method; assay type: functional, cell-based
Caco-2 [21] = assay: Down regulation of Bcl-2 mRNA expression level in human Caco2 cells by qRT-PCR method; assay type: functional, cell-based
Caco-2 [22] = assay: Induction of apoptosis in human Caco2 cells assessed as necrotic cells at 0.5 uM after 24 hrs by Annexin V-FITC/propidium iodide staining based flow cytometry (reference value: 1.59%); assay type: functional

SMILES | IC50 (HepG2) [nM] | IC50 (Caco-2 [1]; read-out: IC50) [nM] | DNA intercalation activity (qualitative) (Escherichia coli) | IC50 [4] [nM] | IC50 (Calf thymus DNA) [nM] | IC50 (HEp-2) [nM] | other results
CSc1nnc2c3nncn3c3ccccc3n12 | 22700 | > 50000 | – | – | – | 5790 | –
c1ccc(CNc2nc3ccccc3n3cnnc23)cc1 | 2970 | 4510 | – | – | – | 40500 | –
COc1cc(NS(C)(=O)=O)ccc1Nc1c2ccccc2nc2ccccc12 | – | – | – | – | – | – | inhibition [2]: Active; inhibition [3]: Active
COC(=O)CSc1nnc2c3nncn3c3ccccc3n12 | 9390 | 6330 | – | – | – | 3110 | –
COc1cccc2c1C(=O)c1c(O)c3c(c(O)c1C2=O)C[C@@](O)(C(=O)CO)C[C@@H]3O[C@H]1C[C@H](N)[C@H](O)[C@H](C)O1 [DOXORUBICIN] | 620 | – | Active | 880 | 30200 | 510 | IC50 (Caco-2 [1]): 730 nM
COc1nc2ccccc2n2cnnc12 | 8050 | 8150 | – | – | – | 3950 | –
CCOC(=O)CCCSc1nnc2c3nncn3c3ccccc3n12 | 5800 | 14800 | – | – | – | > 50000 | –
CCOc1nc2ccccc2n2cnnc12 | 9900 | 6410 | – | – | – | 4210 | –
Clc1ccccc1/C=N/Nc1nc2ccccc2n2cnnc12 | 9890 | 1150 | Active | 1910 | 52300 | 120 | –
c1ccc(CSc2nnc3c4nncn4c4ccccc4n23)cc1 | > 50000 | 10500 | – | – | – | 5360 | –
OCCNc1nc2ccccc2n2cnnc12 | 3180 | 2660 | – | – | – | 140 | –

Further compounds by falling IC50 (HepG2), results first:

IC50 (HepG2) [nM] | IC50 (Caco-2 [1]; read-out: IC50) [nM] | DNA intercalation activity (qualitative) (Escherichia coli) | IC50 [4] [nM] | IC50 (Calf thymus DNA) [nM] | SMILES | IC50 (HEp-2) [nM] | other results
2440 | 3760 | – | – | – | COc1ccccc1/C=N/Nc1nc2ccccc2n2cnnc12 | 2210 | –
2280 | 970 | – | 1220 | 28400 | O=C(NNc1nc2ccccc2n2cnnc12)NC1CCCCC1 | 320 | –
1900 | 3460 | – | 5380 | – | CCNC(=S)NNc1nc2ccccc2n2cnnc12 | 2370 | –
1080 | 3000 | – | – | – | CCCNc1nc2ccccc2n2cnnc12 | 2330 | –
880 | 1480 | Active | 2090 | 48600 | CNc1nc2ccccc2n2cnnc12 | 3170 | –
830 | 2250 | Active | 1940 | 49100 | CCCCNc1nc2ccccc2n2cnnc12 | 10 | –
810 | 1420 | – | 2120 | 62600 | CCOC(=O)CSc1nnc2c3nncn3c3ccccc3n12 | 360 | –
760 | 800 | Active | 940 | 43400 | O=C(CSc1nnc2c3nncn3c3ccccc3n12)Nc1ccc(F)cc1 | 500 | –
710 | 1440 | – | 1190 | 31300 | O=C(NNc1nc2ccccc2n2cnnc12)Nc1ccccc1 | 560 | –
640 | 1290 | Active | 2980 | 34300 | S=C(NNc1nc2ccccc2n2cnnc12)Nc1ccccc1 | 100 | –
630 | 460 | Active | 680 | 39400 | c1ccc2c(c1)nc(NC1CCCCC1)c1nncn12 | 920 | –
560 | 570 | Active | 1060 | 29800 | Sc1nnc2c3nncn3c3ccccc3n12 | 770 | –
500 | 390 | Active | 850 | 38600 | COc1cccc(NC(=O)CSc2nnc3c4nncn4c4ccccc4n23)c1 | 290 | Activity (Caco-2 [5]): 3.91%; Activity (Caco-2 [6]): 13.99%; Activity (Caco-2 [7]): 7.5%; inhibition [8]: inactive; Activity (Caco-2 [9]): Active; inhibition [10]: inactive; Activity (Caco-2 [11]): 40.58%; Activity (Caco-2 [12]): 15.19%; Activity (Caco-2 [13]): 44.23%; Activity (Caco-2 [14]): Active; viability at 0.5 µM (Caco-2 [15]): 84.5%; inhibition [16]: Active; Activity (Caco-2 [17]): Active; Activity (Caco-2 [18]): Active; inhibition [19]: Dose-dependent effect; Activity (Caco-2 [20]): Active; Activity (Caco-2 [21]): Active; Activity (Caco-2 [22]): 2.58%
60 | 5700 | Active | 2970 | 40100 | Clc1cccc(Cl)c1/C=N/Nc1nc2ccccc2n2cnnc12 | 520 | –
